Measured values taken from US11339157B1, “4H-pyrrolo[3,2-c]pyridin-4-one derivatives” (Bayer Aktiengesellschaft, priority 2017, dated 2022).
“And” between values parts separate entries of the source, which are not always exact repeats. Equal values may be shown once. Read-outs that look alike come from different tables or passages of the source.

Experiments:
[1] = target: EGFR ins ASV (insertion of ASV between V769 and D770); assay: Exon 20-Mutant-EGFR(V769_D770insASV) kinase assay (TR-FRET); assay type: biochemical, human; conditions: 2 mM ATP
Description: Exon 20-Mutant-EGFR(V769_D770insASV) Kinase Assay
Inhibitory activity of compounds of the present invention against an Epidermal Growth Factor Receptor (EGFR) with an insertion of the amino acids sequence ASV between V769 and D770 was quantified employing the TR-FRET based kinase activity assay as described in the following paragraphs.
For the assay 50 nl of a 100-fold concentrated solution of the test compound in DMSO was pipetted into either a black low volume 384well microtiter plate or a black 1536 well microtiter plate (both Greiner Bio-One, Frickenhausen, Germany), 2 μl of a solution of EGFR in aqueous assay buffer [50 mM Hepes pH 7.0, 10 mM MgCl2, 1 mM dithiothreitol, 0.5 mM EGTA, 0.3 mM activated sodium ortho-vanadate, 0.005% (w/v) bovine serum albumin, 0.005% (v/v) Tween-20] were added and the mixture was incubated for 15 min at 22° C. to allow pre binding of the test compounds to the enzyme before the start of the kinase reaction. […] The concentration of EGFR was adjusted depending of the activity of the enzyme lot and was chosen appropriate to have the assay in the linear range, typical concentration was 2.5 pg/μl. The reaction was stopped by the addition of 3 μl of a solution of HTRF detection reagents (83.3 nM streptavidine-XL665 [Cisbio Bioassays, Codolet, France] and 1.67 nM PT66-Tb-Cryptate, an terbium-cryptate labelled anti-phospho-tyrosine antibody from Cisbio Bioassays [instead of the PT66 Tb cryptate PT66 Eu Chelate from Perkin Elmer can also be used]) in an aqueous EDTA-solution (133.3 mM EDTA, 0.2% (w/v) bovine serum albumin in 50 mM HEPES pH 7.5).
The resulting mixture was incubated 1 h at 22° C. to allow the binding of the biotinylated phosphorylated peptide to the streptavidine-XL665 and the PT66-Tb-Cryptate. Subsequently the amount of phosphorylated substrate was evaluated by measurement of the resonance energy transfer from the PT66-Tb-Cryptate to the streptavidine-XL665.

[2] = target: EGFR ins SVD (insertion of SVD between D770 and N771) (Homo sapiens, UniProt P00533, INS767SVD); assay: Exon 20-Mutant-EGFR(D770_N771insSVD) kinase assay (TR-FRET); assay type: biochemical
Ba/F3-EGFR-insSVD cells = assay: Proliferation assay in BA/F3 (ins SVD) cells (Cell Titer-Glo); assay type: cell-based
Outline: (§1)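 Ba/F3 cells stably expressing retrovirally transduced EGFR-WT or EGFR-insSVD; WT cells plated with 10 ng/mL EGF, insSVD cells without EGF. Compound exposure 48 h at 37° C; viability read by CellTiter-Glo luminescence.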

Bub1 = Bub1 (Homo sapiens (Human), UniProt O43683); assay: Bub1 kinase assay (TR-FRET, 10 μM ATP); assay type: biochemical; conditions: mean, read-out: Bub1 kinase assay IC50 [mol/l] (mean)
Description: Bub1-inhibitory activities of compounds described in the present invention were quantified using a time-resolved fluorescence energy transfer (TR-FRET) kinase assay which measures phosphorylation of the synthetic peptide Biotin-Ahx-[…]—SEQ ID NO: 5 (C-terminus in amide form), purchased from e.g. Biosyntan (Berlin, Germany) by the (recombinant) catalytic domain of human Bub1 (amino acids 704-1085), expressed in Hi5 insect cells with an N-terminal His6-tag (SEQ ID NO: 9) and purified by affinity-(Ni-NTA) and size exclusion chromatography.
In a typical assay 11 different concentrations of each compound (0.1 nM, 0.33 nM, 1.1 nM, 3.8 nM, 13 nM, 44 nM, 0.15 μM, 0.51 μM, 1.7 μM, 5.9 μM and 20 μM) were tested in duplicate within the same microtiter plate. To this end, 100-fold concentrated compound solutions (in DMSO) were previously prepared by serial dilution (1:3.4) of 2 mM stocks in a clear low volume 384-well source microtiter plate (Greiner Bio-One, Frickenhausen, Germany), from which 50 nl of compounds were transferred into a black low volume test microtiter plate from the same supplier. […] The resulting mixture (5 μl final volume) was incubated at 22° C. during 60 min., and the reaction was stopped by the addition of 5 μl of an aqueous EDTA-solution (50 mM EDTA, in 100 mM HEPES pH 7.5 and 0.2% (w/v) bovine serum albumin) which also contained the TR-FRET detection reagents (0.2 μM streptavidin-XL665 [Cisbio Bioassays, Codolet, France] and 1 nM anti-phosho-Serine antibody [Merck Millipore, cat. #35-002] and 0.4 nM LANCE EU-W1024 labeled anti-mouse IgG antibody [Perkin-Elmer, product no. AD0077, alternatively a Terbium-cryptate-labeled anti-mouse IgG antibody from Cisbio Bioassays can be used]). The stopped reaction mixture was further incubated 1 h at 22° C. in order to allow the formation of complexes between peptides and detection reagents. Subsequently, the amount of product was evaluated by measurement of the resonance energy transfer from the Eu-chelate-antibody complex recognizing the Phosphoserine residue to the streptavidin-XL665 bound to the biotin moiety of the peptide. To this end, the fluorescence emissions at 620 nm and 665 nm after excitation at 330-350 nm were measured in a TR-FRET plate reader, e.g. a Rubystar or Pherastar (both from BMG Labtechnologies, Offenburg, Germany) or a Viewlux (Perkin-Elmer) and the ratio of the emissions (665 nm/[…]) was taken as indicator for the amount of phosphorylated substrate. The data were normalised using two sets of control wells for high-(=enzyme reaction without inhibitor=0%=Minimum inhibition) and low-(=all assay components without enzyme=100%=Maximum inhibition) Bub1 activity. IC50 values were calculated by fitting the normalized inhibition data to a 4-parameter logistic equation (Minimum, Maximum, IC50, Hill; Y=Max+(Min−Max)/(1+(X/IC50)Hill)).

Ba/F3-EGFR-WT cells = assay: Proliferation assay in BA/F3 (wild type) cells (Cell Titer-Glo); assay type: cell-based
Outline: as §1

[3] = 2 mM ATP, mean, read-out: EGFR ins SVD IC50 [mol/l] (mean)
[4] = Table 9, read-out: mutEGFR (D770_N771insSVD) kinase assay IC50
[5] = Mus musculus, BaF3, 48 h, Table 10, plated without EGF
[6] = Mus musculus, BaF3, 48 h, Table 10, plated with 10 ng/mL EGF

Chain of Bub1 (O43683 704-1085): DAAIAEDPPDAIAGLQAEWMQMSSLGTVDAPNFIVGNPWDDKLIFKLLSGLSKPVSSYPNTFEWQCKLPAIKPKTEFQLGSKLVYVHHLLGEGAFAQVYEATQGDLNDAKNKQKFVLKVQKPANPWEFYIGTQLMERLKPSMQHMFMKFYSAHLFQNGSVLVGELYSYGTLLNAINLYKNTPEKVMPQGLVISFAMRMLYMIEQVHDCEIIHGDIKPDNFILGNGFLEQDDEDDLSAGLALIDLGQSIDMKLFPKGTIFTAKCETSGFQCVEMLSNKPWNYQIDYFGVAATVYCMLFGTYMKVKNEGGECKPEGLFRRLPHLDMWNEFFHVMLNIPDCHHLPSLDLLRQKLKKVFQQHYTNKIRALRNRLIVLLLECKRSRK
Chain of EGFR ins SVD (insertion of SVD between D770 and N771) (P00533 with tags, fused parts or gaps INS767SVD limits assumed): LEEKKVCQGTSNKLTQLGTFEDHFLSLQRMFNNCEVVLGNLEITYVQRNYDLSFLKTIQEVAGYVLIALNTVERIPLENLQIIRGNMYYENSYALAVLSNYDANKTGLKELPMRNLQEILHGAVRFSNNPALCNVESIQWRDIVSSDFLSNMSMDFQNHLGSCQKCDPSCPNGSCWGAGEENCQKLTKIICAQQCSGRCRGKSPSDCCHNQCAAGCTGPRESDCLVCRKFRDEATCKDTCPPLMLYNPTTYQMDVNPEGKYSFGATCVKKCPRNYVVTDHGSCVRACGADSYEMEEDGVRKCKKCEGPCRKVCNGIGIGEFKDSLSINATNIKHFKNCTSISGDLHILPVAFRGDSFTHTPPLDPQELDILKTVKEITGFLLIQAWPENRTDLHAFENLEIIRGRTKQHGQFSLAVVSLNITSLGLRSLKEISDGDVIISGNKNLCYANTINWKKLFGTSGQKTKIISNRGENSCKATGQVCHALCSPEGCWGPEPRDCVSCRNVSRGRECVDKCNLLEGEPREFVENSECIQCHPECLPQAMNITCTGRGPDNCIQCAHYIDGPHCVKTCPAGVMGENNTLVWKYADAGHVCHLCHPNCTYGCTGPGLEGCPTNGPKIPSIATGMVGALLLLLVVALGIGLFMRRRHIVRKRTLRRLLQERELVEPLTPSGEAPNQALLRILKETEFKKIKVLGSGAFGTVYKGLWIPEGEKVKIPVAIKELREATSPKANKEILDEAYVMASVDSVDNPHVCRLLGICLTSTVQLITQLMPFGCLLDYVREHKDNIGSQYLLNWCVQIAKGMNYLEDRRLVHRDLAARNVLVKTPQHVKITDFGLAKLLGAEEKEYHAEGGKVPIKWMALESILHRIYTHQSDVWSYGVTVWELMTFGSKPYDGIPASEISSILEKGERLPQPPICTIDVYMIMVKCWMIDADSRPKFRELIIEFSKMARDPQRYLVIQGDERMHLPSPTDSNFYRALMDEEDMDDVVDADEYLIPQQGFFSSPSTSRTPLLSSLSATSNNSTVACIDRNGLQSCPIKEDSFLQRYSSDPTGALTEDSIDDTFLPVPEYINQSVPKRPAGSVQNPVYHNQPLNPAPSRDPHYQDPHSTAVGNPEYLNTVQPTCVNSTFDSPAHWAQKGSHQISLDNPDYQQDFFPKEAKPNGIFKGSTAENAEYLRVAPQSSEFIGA

Structure (SMILES) | EGFR ins ASV IC50 [mol] (mean) [1] | IC50 [2, 3] | IC50 [2, 4] | IC50 (Ba/F3-EGFR-insSVD cells; Mus musculus, BaF3, Table 10, plated without EGF, 48 h) | IC50 (Bub1) | IC50 (Ba/F3-EGFR-WT cells; Mus musculus, BaF3, Table 10, plated with 10 ng/mL EGF, 48 h) | IC50 (Ba/F3-EGFR-insSVD cells; [5]) | IC50 (Ba/F3-EGFR-WT cells; [6]) | IC50 (Ba/F3-EGFR-insSVD cells; Table 10, plated without EGF, 48 h) | IC50 (Ba/F3-EGFR-WT cells; Table 10, plated with 10 ng/mL EGF, 48 h)
O=C1NCCc2[nH]c(-c3ccncc3OCc3ccccc3)c(Nc3cccc(F)c3)c21 [Example 3, 2-[3-(benzyloxy)pyridin-4-yl]-3-[(3-fluorophenyl)amino]-1,5,6,7-tetrahydro-4H-pyrrolo[3,2-c]pyridin-4-one] | 6.85e-09 mol | 0.28 nM | 0.28 nM | 587 nM | 47.6 nM | 2160 nM | – | – | – | –
COc1c(F)cc(F)cc1Nc1c(-c2ccncc2OCC(C)(C)OC)[nH]c2c1C(=O)NCC2 [Example 31, 3-[(3,5-difluoro-2-methoxyphenyl)amino]-2-[3-(2-methoxy-2-methylpropoxy)pyridin-4-yl]-1,5,6,7-tetrahydro-4H-pyrrolo[3,2-c]pyridin-4-one] | 1.61e-10 mol | 0.0988 nM | 0.193 nM | – | 265 nM | – | 158 nM | 1710 nM | – | –
COCCOc1cnccc1-c1[nH]c2c(c1Nc1ccccc1CC(F)F)C(=O)NCC2 [Example 15, 3-{[2-(2,2-difluoroethyl)phenyl]amino}-2-[3-(2-methoxyethoxy)pyridin-4-yl]-1,5,6,7-tetrahydro-4H-pyrrolo[3,2-c]pyridin-4-one] | 1.34e-09 mol | 0.489 nM | 0.489 nM | – | 187 nM | – | 409 nM | 2870 nM | – | –
COCCOc1cnccc1-c1[nH]c2c(c1Nc1ccc(F)c(F)c1OC)C(=O)NCC2 [Example 28, 3-[(3,4-difluoro-2-methoxyphenyl)amino]-2-[3-(2-methoxyethoxy)pyridin-4-yl]-1,5,6,7-tetrahydro-4H-pyrrolo[3,2-c]pyridin-4-one] | 2.69e-08 mol | 0.738 nM | 0.54 nM | – | 565 nM | – | 644 nM | 3670 nM | – | –
COCCOc1cnccc1-c1[nH]c2c(c1Nc1cccc(F)c1C)C(=O)NCC2 [Example 20, 3-[(3-fluoro-2-methylphenyl)amino]-2-[3-(2-methoxyethoxy)pyridin-4-yl]-1,5,6,7-tetrahydro-4H-pyrrolo[3,2-c]pyridin-4-one] | 3.22e-10 mol | 0.149 nM | 0.149 nM | – | 67.4 nM | – | 48.3 nM | 625 nM | – | –
CC(C)(O)COc1cnccc1-c1[nH]c2c(c1Nc1cccc(F)c1)C(=O)NCC2 [Example 4, 3-[(3-fluorophenyl)amino]-2-[3-(2-hydroxy-2-methylpropoxy)pyridin-4-yl]-1,5,6,7-tetrahydro-4H-pyrrolo[3,2-c]pyridin-4-one] | 1.31e-10 mol | < 0.072 nM | < 0.0725 nM | – | 12.5 nM | – | 329 nM | 1610 nM | – | –
COCCOc1cnccc1-c1[nH]c2c(c1Nc1ccccc1OC)C(=O)NCC2 [Example 13, 2-[3-(2-methoxyethoxy)pyridin-4-yl]-3-[(2-methoxyphenyl)amino]-1,5,6,7-tetrahydro-4H-pyrrolo[3,2-c]pyridin-4-one] | 3.89e-08 mol | 4.41 nM | 4.41 nM | – | 350 nM | – | 811 nM | 4010 nM | – | –
CCOc1c(F)cccc1Nc1c(-c2ccncc2OCC(C)(C)OC)[nH]c2c1C(=O)NCC2 [Example 26, 3-[(2-ethoxy-3-fluorophenyl)amino]-2-[3-(2-methoxy-2-methylpropoxy)pyridin-4-yl]-1,5,6,7-tetrahydro-4H-pyrrolo[3,2-c]pyridin-4-one] | 9.43e-10 mol | 0.268 nM | 0.415 nM | – | 85.8 nM | – | 618 nM | 2000 nM | – | –
COC(C)(C)COc1cnccc1-c1[nH]c2c(c1Nc1cccc(F)c1OCC(F)F)C(=O)NCC2 [Example 27, 3-{[2-(2,2-difluoroethoxy)-3-fluorophenyl]amino}-2-[3-(2-methoxy-2-methylpropoxy)pyridin-4-yl]-1,5,6,7-tetrahydro-4H-pyrrolo[3,2-c]pyridin-4-one] | 7.09e-09 mol | 2.14 nM | 2.14 nM | – | 70.1 nM | – | 498 nM | 2500 nM | – | –
COc1c(F)cccc1Nc1c(-c2ccncc2OCC(C)(C)OC)[nH]c2c1C(=O)NCC2 [Example 17, 3-[(3-fluoro-2-methoxyphenyl)amino]-2-[3-(2-methoxy-2-methylpropoxy)pyridin-4-yl]-1,5,6,7-tetrahydro-4H-pyrrolo[3,2-c]pyridin-4-one] | 1.77e-10 mol | 0.113 nM | 0.113 nM | – | 55.1 nM | – | 11.9 nM | 397 nM | – | –
COC(C)(C)COc1cnccc1-c1[nH]c2c(c1Nc1cccc(F)c1)C(=O)NCC2 [Example 6, 3-[(3-fluorophenyl)amino]-2-[3-(2-methoxy-2-methylpropoxy)pyridin-4-yl]-1,5,6,7-tetrahydro-4H-pyrrolo[3,2-c]pyridin-4-one] | 2.12e-10 mol | < 0.072 nM | < 0.0725 nM (2×) and 0.104 nM and 0.0949 nM | – | 26.9 nM | – | 63.3 nM | 394 nM | – | –
COC(C)(C)COc1cnccc1-c1[nH]c2c(c1Nc1cccc(F)c1OC(F)F)C(=O)NCC2 [Example 19, 3-{[2-(difluoromethoxy)-3-fluorophenyl]amino}-2-[3-(2-methoxy-2-methylpropoxy)pyridin-4-yl]-1,5,6,7-tetrahydro-4H-pyrrolo[3,2-c]pyridin-4-one] | 2.39e-10 mol | 0.155 nM | 0.148 nM | – | 149 nM | – | – | – | 40.1 nM | 870 nM
